The target of this assay is T1, SIRT1 (Homo sapiens, UniProt Q96EB6).
T1 sequence (Q96EB6 1-747): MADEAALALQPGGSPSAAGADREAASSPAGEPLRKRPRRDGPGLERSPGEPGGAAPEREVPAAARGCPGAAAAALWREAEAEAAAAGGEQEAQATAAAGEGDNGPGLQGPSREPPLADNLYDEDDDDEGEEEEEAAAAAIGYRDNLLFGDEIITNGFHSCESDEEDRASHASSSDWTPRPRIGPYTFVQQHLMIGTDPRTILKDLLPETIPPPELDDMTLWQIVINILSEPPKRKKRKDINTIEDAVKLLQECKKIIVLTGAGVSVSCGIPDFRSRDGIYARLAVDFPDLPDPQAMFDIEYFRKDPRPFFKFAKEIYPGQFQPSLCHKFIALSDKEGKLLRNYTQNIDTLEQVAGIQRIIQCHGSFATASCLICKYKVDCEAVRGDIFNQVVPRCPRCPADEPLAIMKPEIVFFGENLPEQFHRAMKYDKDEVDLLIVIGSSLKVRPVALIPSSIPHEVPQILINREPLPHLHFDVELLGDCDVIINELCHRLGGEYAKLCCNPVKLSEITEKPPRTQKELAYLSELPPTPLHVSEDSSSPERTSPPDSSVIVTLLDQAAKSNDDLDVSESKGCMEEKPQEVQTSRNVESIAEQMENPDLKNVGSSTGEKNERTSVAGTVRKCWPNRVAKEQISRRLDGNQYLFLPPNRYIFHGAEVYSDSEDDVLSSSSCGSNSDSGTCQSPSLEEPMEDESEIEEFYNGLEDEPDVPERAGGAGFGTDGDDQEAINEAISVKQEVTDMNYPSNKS
As to the kind of experiment: Mass spectrometry based SIRT1 deacetylase activation assay (acetylated p53-derived peptide substrate). It is filed as biochemical. From the text:
A mass spectrometry based assay was used to identify modulators of SIRT1 activity. The mass spectrometry based assay utilizes a peptide having 20 amino acid residues as follows: Ac-EE-K(biotin)-GQSTSSHSK(Ac)NleSTEG-K(5TMR)-EE-NH2 (SEQ ID NO: 1) wherein K(Ac) is an acetylated lysine residue and Nle is a norleucine. The peptide is labeled with the fluorophore 5TMR (excitation 540 nm/emission 580 nm) at the C-terminus. The sequence of the peptide substrate is based on p53 with several modifications. In addition, the methionine residue naturally present in the sequence was replaced with the norleucine because the methionine may be susceptible to oxidation during synthesis and purification.
The mass spectrometry assay is conducted as follows: 0.5 μM peptide substrate and 120 μM βNAD^+ is incubated with 10 nM SIRT1 for 25 minutes at 25° C. in a reaction buffer (50 mM Tris-acetate pH 8, 137 mM NaCl, 2.7 mM KCl, 1 mM MgCl2, 5 mM DTT, 0.05% BSA). Test compounds may be added to the reaction as described above. […] After the 25 minute incubation with SIRT1, 10 μL of 10% formic acid is added to stop the reaction. Reactions are sealed and frozen for later mass spec analysis. Determination of the mass of the substrate peptide allows for precise determination of the degree of acetylation (i.e. starting material) as compared to deacetylated peptide (product).
A control for inhibition of sirtuin activity is conducted by adding 1 μL of 500 mM nicotinamide as a negative control at the start of the reaction (e.g., permits determination of maximum sirtuin inhibition). A control for activation of sirtuin activity is conducted using 10 nM of sirtuin protein, with 1 μL of DMSO in place of compound, to determine the amount of deacetylation of the substrate at a given timepoint within the linear range of the assay. This timepoint is the same as that used for test compounds and, within the linear range, the endpoint represents a change in velocity.
For the above assay, SIRT1 protein was expressed and purified as follows. […] The protein was expressed by induction with 1 mM IPTG as an N-terminal His-tag fusion protein at 18° C. overnight and harvested at 30,000×g. Cells were lysed with lysozyme in lysis buffer (50 mM Tris-HCl, 2 mM Tris[2-carboxyethyl]phosphine (TCEP), 10 μM ZnCl2, 200 mM NaCl) and further treated with sonication for 10 min for complete lysis. The protein was purified over a Ni-NTA column (Amersham) and fractions containing pure protein were pooled, concentrated and run over a sizing column (Sephadex S200 26/60 global). The peak containing soluble protein was collected and run on an Ion-exchange column (MonoQ). Gradient elution (200 mM-500 mM NaCl) yielded pure protein. This protein was concentrated and dialyzed against dialysis buffer (20 mM Tris-HCl, 2 mM TCEP) overnight. The protein was aliquoted and frozen at −80° C. until further use.
Sirtuin modulating compounds that activated SIRT1 were identified using the assay described above and are shown below in Table 1. The EC1.5 values for the activating compounds are represented by A (EC1.5<1.0 uM), B (EC1.5 1-25 uM), C (EC1.5 >25 uM). The percent maximum fold activation is represented by A (Fold activation >200%) or B (Fold Activation <200%).

Where [1] appears, read: 0.5 μM peptide substrate, 120 μM βNAD+, 10 nM SIRT1, 25 minutes at 25° C.
The mark [2] stands for this setting: 0.5 μM peptide substrate, 120 μM βNAD+, 10 nM SIRT1, 25 min at 25° C.
The mark [3] stands for this setting: 0.5 μM peptide substrate, 120 μM βNAD+, 10 nM SIRT1, 25 min at 25° C., read-out: EC1.5.

Where two headings read alike, the source gives them in different places.

Take `O=C(Nc1ccc(OC[C@@H](O)CO)cc1)c1cccc2[nH]c(-c3cccc(N4CCOCC4)c3)nc12` [Compound 787]: under setting [1], the EC1.5 entry is “A (EC1.5<1.0 uM)” and the “Fold Act. (percent maximum fold activation)” value is on record as “A (Fold activation >200%)”.

As to `O=C(Nc1nccs1)c1cncc2[nH]c(-c3ccc(F)cc3C(F)(F)F)nc12` [Compound 693, 2-(4-fluoro-2-trifluoromethyl-phenyl)-3H-imidazo[4,5-c]pyridine-7-carboxylic acid thiazol-2-ylamide], under setting [1], the EC1.5 result is listed as “B (EC1.5 1-25 uM)” and the “Fold Act. (percent maximum fold activation)” value is listed as “B (Fold Activation <200%)”.

Turning to `CS(=O)(=O)c1ccc(F)cc1-c1nc2c(C(=O)Nc3ccccn3)cccc2[nH]1` [Compound 658], under setting [1], the EC1.5 entry is recorded as “A (EC1.5<1.0 uM)” and the “Fold Act. (percent maximum fold activation)” value is reported as “A (Fold activation >200%)”.

With `Cc1cccc(-c2nc3c(C(=O)Nc4nccs4)cccc3[nH]2)c1OCCN1CCOCC1` [Compound 626], under setting [1], the EC1.5 entry is on record as “B (EC1.5 1-25 uM)” and the “Fold Act. (percent maximum fold activation)” value is recorded as “A (Fold activation >200%)”.

For the compound `O=C(Nc1cccnc1)c1cccc2[nH]c(-c3cccc4c3OC(F)(F)O4)nc12` [Compound 531], the “Fold Act. (percent maximum fold activation)” value under setting [2] is on record as “A (Fold activation >200%)”. The EC1.5 under setting [3] is under 1000 nM.

In the case of `O=C(Nc1nccs1)c1cccc2[nH]c(-c3cc(F)cc(F)c3)nc12` [Compound 213], the EC1.5 result is listed as “B (EC1.5 1-25 uM)” and the “Fold Act. (percent maximum fold activation)” value is “A (Fold activation >200%)”.

Regarding `Cc1cnc(NC(=O)c2cccc3[nH]c(-c4cnccc4C(F)(F)F)nc23)s1` [Compound 703, N-(5-methylthiazol-2-yl)-2-(4-(trifluoromethyl)pyridin-3-yl)-1H-benzo[d]imidazole-4-carboxamide], under setting [1], the EC1.5 result was “A (EC1.5<1.0 uM)” and the “Fold Act. (percent maximum fold activation)” value is “A (Fold activation >200%)”.

Consider `Cc1cnc(NC(=O)c2cncc3[nH]c(-c4ccc(Cl)cc4C(F)(F)F)nc23)s1` [Compound 652], for which, under setting [1], the EC1.5 entry is “A (EC1.5<1.0 uM)” and the “Fold Act. (percent maximum fold activation)” value is listed as “A (Fold activation >200%)”.

Regarding `O=C(Nc1nccs1)c1cccc2[nH]c(-c3cccc(N4CCOCC4)c3)nc12` [Compound 226], the EC1.5 entry is reported as “A (EC1.5<1.0 uM)” and the “Fold Act. (percent maximum fold activation)” value is given as “A (Fold activation >200%)”.

On to `O=C(Nc1cccc(OCC(O)CO)c1)c1cccc2[nH]c(-c3ccc(Cl)cc3C(F)(F)F)nc12` (centres unmarked) [Compound 678], for which, under setting [1], the EC1.5 entry is given as “A (EC1.5<1.0 uM)” and the “Fold Act. (percent maximum fold activation)” value is recorded as “A (Fold activation >200%)”.

Regarding `CC1(C)Cc2cccc(-c3nc4c(C(=O)Nc5cccnc5)cccc4[nH]3)c2O1` [Compound 401], the “Fold Act. (percent maximum fold activation)” value under setting [2] is given as “A (Fold activation >200%)”. Besides, the EC1.5 under setting [3] was 1000 to 25000 nM.

Turning to `O=C(NC1CCNCC1)c1cccc2[nH]c(-c3cccc(C(F)(F)F)c3)nc12` [Compound 298], the EC1.5 result is on record as “B (EC1.5 1-25 uM)” and the “Fold Act. (percent maximum fold activation)” value is “A (Fold activation >200%)”.

For the compound `O=C(Nc1cccc2[nH]c(-c3cc(F)ccc3C(F)(F)F)nc12)c1cccnc1` [Compound 386], the EC1.5 result is recorded as “B (EC1.5 1-25 uM)” and the “Fold Act. (percent maximum fold activation)” value is reported as “A (Fold activation >200%)”.

As to `O=C(Nc1nccs1)c1cccc2[nH]c(-c3cccnc3N3CCOCC3)nc12` [Compound 250, 2-(2-morpholinopyridin-3-yl)-N-(thiazol-2-yl)-1H-benzo[d]imidazole-4-carboxamide], the EC1.5 entry is reported as “B (EC1.5 1-25 uM)” and the “Fold Act. (percent maximum fold activation)” value is reported as “A (Fold activation >200%)”.

With `Cn1nc(-c2ccccc2)cc1-c1nc2c(C(=O)Nc3nccs3)cccc2[nH]1` [Compound 253], the EC1.5 result is recorded as “A (EC1.5<1.0 uM)” and the “Fold Act. (percent maximum fold activation)” value is reported as “A (Fold activation >200%)”.

With `O=C(NC1CCCC1)c1cccc2[nH]c(-c3cccc(C(F)(F)F)c3)nc12` [Compound 276], the EC1.5 entry is on record as “C (EC1.5 >25 uM)” and the “Fold Act. (percent maximum fold activation)” value is recorded as “B (Fold Activation <200%)”.

Values taken from US8846947B2, “Benzimidazoles and related analogs as sirtuin modulators” (GlaxoSmithKline LLC, priority 2008, dated 2014).
